Calls of active or inactive are those of the source. No cut-off for these calls is given here.
Columns and labels:
A549 [1] = experiment: Cell cycle arrest in human A549 cells assessed as accumulation at G2/M phase at 4 uM after 24 hrs by flow cytometry; type: functional
A549 [2] = experiment: Induction of apoptosis in human A549 cells assessed as apoptotic cells at 4 uM after 24 hrs using annexin-V FITC/PI double staining by flow cytometry; type: functional
A549 [3] = experiment: Cytotoxicity against human A549 cells assessed as cell death at 4 uM after 24 hrs followed by irradiated with light dose 0.18 J/cm2 by MTT assay; type: functional, cell-based
A549 [4] = experiment: Induction of apoptosis in human A549 cells assessed as pre-necrotic cells at 4 uM after 24 hrs followed by irradiated with light dose 0.18 J/cm2 using annexin-V FITC/PI double staining by flow cytometry; type: functional
A549 [5] = experiment: Induction of apoptosis in human A549 cells assessed as live mitochondrial membrane depolarized cells at 4 uM after 24 hrs using JC-1 staining by flow cytometry; type: functional
A549 [6] = experiment: Inhibition of cell invasion in human A549 cells assessed as invasion index at 4 uM after 72 hrs relative to control; type: functional; conditions: A549, 72 h
SW480 = experiment: Cytotoxicity against human SW480 cells assessed as cell death at 4 uM after 24 hrs followed by irradiated with light dose 0.18 J/cm2 by MTT assay; type: functional, cell-based
AGS = experiment: Cytotoxicity against human AGS cells assessed as cell death at 4 uM after 24 hrs followed by irradiated with light dose 0.18 J/cm2 by MTT assay; type: functional, cell-based
A549 [7] = experiment: Induction of apoptosis in human A549 cells assessed as pre-necrotic cells at 4 uM after 24 hrs followed by irradiated with light dose 0.18 J/cm2 using annexin-V-PE/7-AAD double staining by flow cytometry; type: functional
A549 [8] = experiment: Induction of apoptosis in human A549 cells assessed as pre-necrotic cells at 4 uM after 24 hrs using annexin-V-PE/7-AAD double staining by flow cytometry; type: functional
A549 [9] = experiment: Induction of apoptosis in human A549 cells assessed as late apoptotic mitochondrial membrane depolarized cells at 4 uM after 24 hrs using JC-1 staining by flow cytometry; type: functional
A549 [10] = experiment: Antitumor activity against human A549 cells xenografted in nude BALB/C mouse assessed as hardened tumor at 8 uM after 24 hrs followed by irradiated with light dose 78 J/cm2 measured after 10 days; type: functional, cell-based
[11] = Drug uptake in human A549 cell nucleus by using Hoechst 33258 staining; type: ADME, cell-based
A549 [12] = experiment: Induction of apoptosis in human A549 cells assessed as dying mitochondrial membrane depolarized cells at 4 uM after 24 hrs using JC-1 staining by flow cytometry; type: functional
HL-60 = experiment: Cytotoxicity against human HL60 cells assessed as cell death at 4 uM after 24 hrs followed by irradiated with light dose 0.18 J/cm2 by MTT assay; type: functional, cell-based
A549 [13] = experiment: Antitumor activity against human A549 cells xenografted in nude BALB/C mouse assessed as dry tumor at 8 uM after 24 hrs followed by irradiated with light dose 78 J/cm2 measured after 10 days; type: functional, cell-based
A549 [14] = experiment: Induction of apoptosis in human A549 cells assessed as upregulation of Smac mRNA expression at 4 uM after 24 hrs followed by irradiated with light dose 0.18 J/cm2 by RT-PCR analysis; type: functional, cell-based
A549 [15] = experiment: Induction of apoptosis in human A549 cells assessed as down regulation of […] mRNA expression at 4 uM after 24 hrs followed by irradiated with light dose 0.18 J/cm2 by RT-PCR analysis; type: functional, cell-based
A549 [16] = experiment: Antitumor activity against human A549 cells xenografted in nude BALB/C mouse assessed as scab formation at 8 uM after 24 hrs followed by irradiated with light dose 78 J/cm2 measured after 20 days; type: functional, cell-based
A549 [17] = experiment: Induction of apoptosis in human A549 cells assessed as viable cells at 4 uM after 24 hrs followed by irradiated with light dose 0.18 J/cm2 using annexin-V FITC/PI double staining by flow cytometry; type: functional; conditions: A549, light or radiation study, read-out: Activity
A549 [18] = experiment: Induction of apoptosis in human A549 cells assessed as viable cells at 4 uM after 24 hrs followed by irradiated with light dose 0.18 J/cm2 using annexin-V-PE/7-AAD double staining by flow cytometry; type: functional; conditions: A549, light or radiation study, read-out: Activity
A549 [19] = experiment: Induction of apoptosis in human A549 cells assessed as viable cells at 4 uM after 24 hrs using annexin-V-PE/7-AAD double staining by flow cytometry; type: functional; conditions: A549, 24 h, read-out: Activity
A549 [20] = experiment: Induction of apoptosis in human A549 cells assessed as upregulation of TNFSF13 mRNA expression at 4 uM after 24 hrs followed by irradiated with light dose 0.18 J/cm2 by RT-PCR analysis; type: functional, cell-based
A549 [21] = experiment: Induction of apoptosis in human A549 cells assessed as live mitochondrial membrane polarized cells at 4 uM after 24 hrs using JC-1 staining by flow cytometry; type: functional
A549 [22] = experiment: Induction of apoptosis in human A549 cells assessed as late apoptotic cells at 4 uM after 24 hrs followed by irradiated with light dose 0.18 J/cm2 using annexin-V-PE/7-AAD double staining by flow cytometry; type: functional
A549 [23] = experiment: Inhibition of cell invasion in human A549 cells assessed as invasion index at 4 uM after 72 hrs followed by irradiated with light dose 0.18 J/cm2 relative to control; type: functional; conditions: A549, light or radiation study
A549 [24] = experiment: Induction of apoptosis in human A549 cells transfected with lentivirus GFP assessed as reduction of GFP mRNA level at 4 uM after 24 hrs followed by irradiated with light dose 0.18 J/cm2 by MTT assay; type: functional; design: scale not given: the % may be the effect or the level left
A549 [25] = experiment: Induction of apoptosis in human A549 cells transfected with lentivirus GFP assessed as cell survival at 4 uM after 24 hrs followed by irradiated with light dose 0.18 J/cm2 by MTT assay; type: functional; conditions: A549, light or radiation study, read-out: Activity
A549 [26] = experiment: Induction of apoptosis in human A549 cells assessed as apoptotic cells at 4 uM after 24 hrs followed by irradiated with light dose 0.18 J/cm2 using annexin-V FITC/PI double staining by flow cytometry; type: functional
A549 [27] = experiment: Induction of apoptosis in human A549 cells assessed as upregulation of XIAP mRNA expression at 4 uM after 24 hrs followed by irradiated with light dose 0.18 J/cm2 by RT-PCR analysis; type: functional, cell-based
A549 [28] = experiment: Cell cycle arrest in human A549 cells assessed as accumulation at S phase at 4 uM after 24 hrs followed by irradiated with light dose 0.18 J/cm2 by flow cytometry; type: functional

Drug uptake [11]: Active
SMILES: C=Cc1c(C)c2cc3nc(c4c5[nH]c(cc6nc(cc1[nH]2)C(C)=C6CC)c(C)c5C(=O)N(C1CCCCC1)C4=O)[C@@H](CCC(=O)O)[C@@H]3C
Activity (A549 [1]): 11.07% | Activity (A549 [2]): 0.99% | Activity (A549 [3]): Active | Activity (A549 [4]): 0.4% | Activity (A549 [5]): 0.01% | inhibition at 4 µM (A549 [6]): 76.4% | Activity (SW480): Active | Activity (AGS): Active | Activity (A549 [7]): 7.63% | Activity (A549 [8]): 0.41% | Activity (A549 [9]): 88.88% | Activity (A549 [10]): Active | Activity (A549 [12]): 9.35% | Activity (HL-60): Active | Activity (A549 [13]): Active | Activity (A549 [14]): Active | Activity (A549 [15]): Active | Activity (A549 [16]): Active | viability at 4 µM (A549 [17]): 2.08% | viability at 4 µM (A549 [18]): 9.32% | viability at 4 µM (A549 [19]): 91% | Activity (A549 [20]): Active | Activity (A549 [21]): 0% | Activity (A549 [22]): 27.71% | inhibition at 4 µM (A549 [23]): 15.7% | Activity (A549 [24]): 18.8% | viability at 4 µM (A549 [25]): 44.9% | Activity (A549 [26]): 74.24% | Activity (A549 [27]): Active | Activity (A549 [28]): 21.56%

Reference: ChEMBL document CHEMBL1240505, “Studies on preparation and photodynamic mechanism of chlorin P6-13,15-N-(cyclohexyl)cycloimide (Chlorin-H) and its antitumor effect for photodynamic therapy in vitro and in vivo” (Bioorg Med Chem, 2010)
